Assay results from US9920017B2, “Heterocyclic compounds as pesticides” (BAYER CROPSCIENCE AKTIENGESELLSCHAFT, priority 2014, dated 2018).

Experiment: Determination of log P values by HPLC (reversed-phase C18)
Type: physicochemical
Conditions: HPLC, reversed-phase C18, 55° C.; final compounds table
Method: 1) Description of Method for Determination of the Log P Values ([…]) The log P values given in the table were determined in accordance with EEC Directive 79/831 Annex V.A8 by HPLC (High Performance Liquid Chromatography) using a reversed-phase column (C 18). Temperature: 55° C. […] Gradient: from 10% eluent A/90% eluent B to 95% eluent A/5% eluent B in 4.25 min. Calibration was effected with unbranched alkan-2-ones (having 3 to 16 carbon atoms) with known log P values (log P values determined on the basis of the retention times by linear interpolation between two successive alkanones). The lambda max values were determined in the maxima of the chromatographic signals using the UV spectra from 200 nm to 400 nm.

Row | Compound | log P neutral
1 | O=C(Nc1ncn(-c2ccccc2F)n1)c1ccccc1C(F)(F)F [Compound I-1-2] | 2.06
2 | O=C(Nc1ncn(-c2c(F)cccc2F)n1)c1ccccc1OC(F)(F)F [Compound I-1-17] | 2.14
3 | O=C(Nc1ncn(-c2c(F)cccc2F)n1)c1cccnc1Cl [Compound I-1-23] | 1.24
4 | O=C(Nc1ncn(-c2ccc(Cl)cc2Cl)n1)c1ccccc1C(F)(F)F [Compound I-1-53] | 2.58
5 | O=C(Nc1ncn(-c2cc(Cl)ccc2Cl)n1)c1ccccc1C(F)(F)F [Compound I-1-54] | 2.55
6 | O=C(Nc1ncn(-c2c(F)c(F)c(F)c(F)c2F)n1)c1ccccc1Cl [Compound I-1-66] | 2.28
7 | CCc1ccccc1C(=O)Nc1ncn(-c2c(F)c(F)c(F)c(F)c2F)n1 [Compound I-1-68] | 2.61
8 | O=C(Nc1ncn(-c2c(F)cccc2F)n1)c1ccsc1I [Compound I-1-94] | 1.92
9 | CCc1ccccc1C(=O)Nc1ncn(-c2ccccc2C(F)(F)F)n1 [Compound I-1-95] | 2.33
10 | Cc1cc(C)c(S(=O)(=O)CC(F)(F)F)cc1-n1cnc(NC(=O)c2ccccc2C(F)(F)F)n1 [Compound I-1-96] | 2.49
11 | Cc1cc(C)c(-n2cnc(NC(=O)c3ccccc3C(F)(F)F)n2)cc1SCC(F)(F)F [Compound I-1-98] | 3.21

Second part, the compound after the results:

Row | log P neutral | Compound
12 | 1.88 | O=C(Nc1ncn(-c2ccccc2F)n1)c1ccccc1Cl [Compound I-1-1]
13 | 2.10 | O=C(Nc1ncn(-c2ccccc2Cl)n1)c1ccccc1C(F)(F)F [Compound I-1-3]
14 | 1.91 | O=C(Nc1ncn(-c2ccccc2Cl)n1)c1ccccc1Cl [Compound I-1-5]
15 | 1.90 | O=C(Nc1ncn(-c2ccccc2Cl)n1)c1c(F)cccc1F [Compound I-1-6]
16 | 2.06 | O=C(Nc1ncn(-c2ccccc2C(F)(F)F)n1)c1ccccc1Cl [Compound I-1-7]
17 | 2.32 | O=C(Nc1ncn(-c2ccccc2OC(F)(F)F)n1)c1ccccc1Cl [Compound I-1-9]
18 | 1.91 | COc1ccccc1C(=O)Nc1ncn(-c2c(F)cccc2F)n1 [Compound I-1-16]
19 | 2.30 | O=C(Nc1ncn(-c2c(F)cccc2Cl)n1)c1ccccc1OC(F)(F)F [Compound I-1-34]
20 | 1.83 | O=C(Nc1ncn(-c2c(F)cccc2Cl)n1)c1ccccc1Cl [Compound I-1-36]
21 | 2.19 | Cc1cccc(F)c1-n1cnc(NC(=O)c2ccccc2C(F)(F)F)n1 [Compound I-1-37]
22 | 1.99 | Cc1cccc(F)c1-n1cnc(NC(=O)c2ccccc2Cl)n1 [Compound I-1-38]
23 | 2.13 | Cc1cccc(F)c1-n1cnc(NC(=O)c2ccccc2I)n1 [Compound I-1-39]
24 | 2.04 | Cc1cccc(Cl)c1-n1cnc(NC(=O)c2ccccc2Cl)n1 [Compound I-1-41]
25 | 2.36 | CCc1cccc(Cl)c1-n1cnc(NC(=O)c2ccccc2Cl)n1 [Compound I-1-43]
26 | 2.04 | Cc1cccc(C)c1-n1cnc(NC(=O)c2ccccc2Cl)n1 [Compound I-1-47]
27 | 2.26 | Cc1cccc(C)c1-n1cnc(NC(=O)c2ccccc2C(F)(F)F)n1 [Compound I-1-48]
28 | 2.15 | COc1cccc(C)c1-n1cnc(NC(=O)c2ccccc2C(F)(F)F)n1 [Compound I-1-49]
29 | 1.95 | COc1cccc(C)c1-n1cnc(NC(=O)c2ccccc2Cl)n1 [Compound I-1-50]
30 | 2.49 | O=C(Nc1ncn(-c2cccc(Cl)c2Cl)n1)c1ccccc1C(F)(F)F [Compound I-1-51]
31 | 2.29 | O=C(Nc1ncn(-c2cccc(Cl)c2Cl)n1)c1ccccc1Cl [Compound I-1-52]
32 | 2.34 | O=C(Nc1ncn(-c2cc(Cl)ccc2Cl)n1)c1ccccc1Cl [Compound I-1-55]
33 | 1.96 | O=C(Nc1ncn(-c2ccccc2Br)n1)c1ccccc1Cl [Compound I-1-71]
34 | 2.34 | CCc1ccccc1C(=O)Nc1ncn(-c2ccccc2Br)n1 [Compound I-1-73]
35 | 2.01 | O=C(Nc1ncn(-c2ccccc2I)n1)c1ccccc1Cl [Compound I-1-76]
36 | 2.15 | O=C(Nc1ncn(-c2ccccc2I)n1)c1ccccc1I [Compound I-1-77]
37 | 2.31 | CCc1ccccc1C(=O)Nc1ncn(-c2ccccc2I)n1 [Compound I-1-78]
38 | 2.45 | CCc1ccccc1C(=O)Nc1ncn(-c2c(Br)cccc2Br)n1 [Compound I-1-81]
39 | 2.02 | O=C(Nc1ncn(-c2c(F)cccc2I)n1)c1ccccc1Cl [Compound I-1-84]
40 | 2.26 | O=C(Nc1ncn(-c2c(Br)cc(F)cc2Br)n1)c1ccccc1Cl [Compound I-1-88]

Same assay, conditions: N-[1-aryl-1H-1,2,4-triazol-3-yl]benzamides, formula (1-9)

Row | Compound | logP (neutral)
41 | O=C(Nc1ncn(-c2c(Br)cc(F)cc2Br)n1)c1ccccc1 [1-9 R1=Br R2m=6-Br-4-F] | 2.14
42 | O=C(Nc1ncn(-c2ccccc2Br)n1)c1ccccc1 [1-9 R1=Br R2m=—] | 1.80
43 | O=C(Nc1ncn(-c2ccccc2C(F)(F)F)n1)c1ccccc1 [1-9 R1=CF3 R2m=—] | 1.91
44 | O=C(Nc1ncn(-c2c(F)c(F)c(F)c(F)c2F)n1)c1ccccc1 [1-9 R1=F R2m=3,4,5,6-F4] | 2.11
45 | O=C(Nc1ncn(-c2c(F)ccc(F)c2F)n1)c1ccccc1 [1-9 R1=F R2m=3,6-F2] | 1.73
46 | O=C(Nc1ncn(-c2c(F)cc(F)cc2F)n1)c1ccccc1 [1-9 R1=F R2m=4,6-F2] | 1.71
47 | O=C(Nc1ncn(-c2ccccc2F)n1)c1ccccc1 [1-9 R1=F R2m=—] | 1.69
48 | O=C(Nc1ncn(-c2ccccc2I)n1)c1ccccc1 [1-9 R1=I R2m=—] | 1.87
49 | O=C(Nc1ncn(-c2ccccc2OC(F)(F)F)n1)c1ccccc1 [1-9 R1=OCF3 R2m=—] | 2.15

Further lines, results first:

Row | logP (neutral) | Compound
50 | 2.00 | O=C(Nc1ncn(-c2c(Br)cccc2Br)n1)c1ccccc1 [1-9 R1=Br R2m=6-Br]
51 | 1.76 | COc1cccc(C)c1-n1cnc(NC(=O)c2ccccc2)n1 [1-9 R1=CH3 R2m=6-OCH3]
52 | 2.11 | O=C(Nc1ncn(-c2cccc(Cl)c2Cl)n1)c1ccccc1 [1-9 R1=Cl R2m=3-Cl]
53 | 2.18 | O=C(Nc1ncn(-c2ccc(Cl)cc2Cl)n1)c1ccccc1 [1-9 R1=Cl R2m=4-Cl]
54 | 2.17 | O=C(Nc1ncn(-c2cc(Cl)ccc2Cl)n1)c1ccccc1 [1-9 R1=Cl R2m=5-Cl]
55 | 2.2 | CCc1cccc(Cl)c1-n1cnc(NC(=O)c2ccccc2)n1 [1-9 R1=Cl R2m=6-C2H5]
56 | 1.92 | Cc1cccc(Cl)c1-n1cnc(NC(=O)c2ccccc2)n1 [1-9 R1=Cl R2m=6-CH3]
57 | 1.8 | O=C(Nc1ncn(-c2c(Cl)cccc2Cl)n1)c1ccccc1 [1-9 R1=Cl R2m=6-Cl]
58 | 1.75 | O=C(Nc1ncn(-c2c(F)cccc2Cl)n1)c1ccccc1 [1-9 R1=Cl R2m=6-F]
59 | 1.75 | O=C(Nc1ncn(-c2ccccc2Cl)n1)c1ccccc1 [1-9 R1=Cl R2m=—]
60 | 1.89 | Cc1cccc(F)c1-n1cnc(NC(=O)c2ccccc2)n1 [1-9 R1=F R2m=6-CH3]
61 | 1.79 | O=C(Nc1ncn(-c2c(F)cccc2I)n1)c1ccccc1 [1-9 R1=F R2m=6-I]

Same assay, conditions: compounds of formula (IIa-1), R3 hydrogen

Row | logP (neutral) | Compound
62 | 1.35 | Nc1ncn(-c2c(Br)cc(F)cc2Br)n1 [IIa-1 R1=Br R2m=6-Br-4-F]
63 | 1.2 | Nc1ncn(-c2c(Br)cccc2Br)n1 [IIa-1 R1=Br R2m=6-Br]
64 | 1.03 | Nc1ncn(-c2ccccc2Br)n1 [IIa-1 R1=Br R2m=—]
65 | 1.16 | Nc1ncn(-c2ccccc2C(F)(F)F)n1 [IIa-1 R1=CF3 R2m=—]
66 | 0.98 | COc1cccc(C)c1-n1cnc(N)n1 [IIa-1 R1=CH3 R2m=6-OCH3]
67 | 1.41 | Nc1ncn(-c2cccc(Cl)c2Cl)n1 [IIa-1 R1=Cl R2m=3-Cl]
68 | 1.48 | Nc1ncn(-c2ccc(Cl)cc2Cl)n1 [IIa-1 R1=Cl R2m=4-Cl]

Same assay, conditions: reversed-phase C18 HPLC column, pH 3.4; HPLC-MS, preparation examples; read-out: log P

Row | chromatographic logP | Compound
69 | 0.3 | Nc1ncn(-c2ncc(F)cc2F)n1 [1-(3,5-Difluoropyridin-2-yl)-1H-1,2,4-triazol-3-amine]
70 | 2.19 | COc1ccccc1-n1nnc(NC(=O)c2ccccc2C(F)(F)F)n1 [Compound I-2-1, N-[2-(2-Methoxyphenyl)-2H-tetrazol-5-yl]-2-(trifluoromethyl)benzamide]
71 | 2.35 | COc1cc(F)ccc1-n1nnc(NC(=O)c2ccccc2C(F)(F)F)n1 [Compound I-2-2, N-[2-(4-Fluoro-2-methoxyphenyl)-2H-tetrazol-5-yl]-2-(trifluoromethyl)benzamide]

Same assay, conditions: reversed-phase C18 HPLC column; HPLC, reversed-phase C18, 55° C.; final compounds table; read-out: log P neutral

Row | chromatographic logP | Compound
72 | 2.19 | COc1ccccc1-n1nnc(NC(=O)c2ccccc2C(F)(F)F)n1 [Compound I-2-1, N-[2-(2-Methoxyphenyl)-2H-tetrazol-5-yl]-2-(trifluoromethyl)benzamide]
73 | 2.35 | COc1cc(F)ccc1-n1nnc(NC(=O)c2ccccc2C(F)(F)F)n1 [Compound I-2-2, N-[2-(4-Fluoro-2-methoxyphenyl)-2H-tetrazol-5-yl]-2-(trifluoromethyl)benzamide]

Same assay, conditions: reversed-phase C18 HPLC column; HPLC-MS, preparation examples; read-out: log P (neutral)

Row | chromatographic logP | Compound
74 | 0.61 | Nc1ncn(-c2c(F)cccc2F)n1 [1-(2,6-Difluorophenyl)-1H-1,2,4-triazol-3-amine]
75 | 0.92 | Nc1ncn(-c2c(F)cccc2Br)n1 [1-(2-Bromo-6-fluorophenyl)-1H-1,2,4-triazol-3-amine]
76 | 1.09 | Nc1ncn(-c2c(F)cccc2C(F)(F)F)n1 [1-[2-Fluoro-6-(trifluoromethyl)phenyl]-1H-1,2,4-triazol-3-amine]
77 | 1.28 | Nc1noc(-c2ccccc2)n1 [5-Phenyl-1,2,4-oxadiazol-3-amine]
78 | 2.87 | CCO/C=N/c1noc(-c2ccccc2)n1 [Ethyl [5-phenyl-1,2,4-oxadiazol-3-yl]imidoformate]
